The species named for assay [1] is Homo sapiens. The experiment in a line: Selectivity index, ratio of IC50 for human CYP24A1 to IC50 for human CYP27B1.
Assay [2] has as its target T1, 1,25-dihydroxyvitamin D(3) 24-hydroxylase, mitochondrial (Homo sapiens, UniProt Q07973).
T1 sequence (Q07973 whole entry): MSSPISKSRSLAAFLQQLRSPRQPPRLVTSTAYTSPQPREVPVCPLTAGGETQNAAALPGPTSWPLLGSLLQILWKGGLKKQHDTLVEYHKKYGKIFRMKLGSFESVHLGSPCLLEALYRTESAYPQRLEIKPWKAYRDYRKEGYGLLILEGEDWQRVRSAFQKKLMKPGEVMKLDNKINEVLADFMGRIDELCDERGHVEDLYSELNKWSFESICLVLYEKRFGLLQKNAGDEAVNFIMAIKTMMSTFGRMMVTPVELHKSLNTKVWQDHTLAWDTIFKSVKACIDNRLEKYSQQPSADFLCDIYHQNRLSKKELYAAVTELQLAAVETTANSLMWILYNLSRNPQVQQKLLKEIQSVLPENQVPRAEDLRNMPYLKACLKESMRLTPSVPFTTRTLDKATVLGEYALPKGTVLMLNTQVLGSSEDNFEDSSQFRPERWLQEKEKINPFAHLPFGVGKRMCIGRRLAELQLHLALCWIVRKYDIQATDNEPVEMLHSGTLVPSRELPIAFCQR
Kind of assay: Inhibition of N-terminal MBP-tagged human CYP24A1 expressed in Escherichia coli assessed as reduction in […] activity incubated for 25 mins using Adx, AdR and 1,25(OH)2D3.

Assay [3] addresses T2, 25-hydroxyvitamin D-1 alpha hydroxylase, mitochondrial (Homo sapiens, UniProt O15528).
T2 sequence (O15528 whole entry): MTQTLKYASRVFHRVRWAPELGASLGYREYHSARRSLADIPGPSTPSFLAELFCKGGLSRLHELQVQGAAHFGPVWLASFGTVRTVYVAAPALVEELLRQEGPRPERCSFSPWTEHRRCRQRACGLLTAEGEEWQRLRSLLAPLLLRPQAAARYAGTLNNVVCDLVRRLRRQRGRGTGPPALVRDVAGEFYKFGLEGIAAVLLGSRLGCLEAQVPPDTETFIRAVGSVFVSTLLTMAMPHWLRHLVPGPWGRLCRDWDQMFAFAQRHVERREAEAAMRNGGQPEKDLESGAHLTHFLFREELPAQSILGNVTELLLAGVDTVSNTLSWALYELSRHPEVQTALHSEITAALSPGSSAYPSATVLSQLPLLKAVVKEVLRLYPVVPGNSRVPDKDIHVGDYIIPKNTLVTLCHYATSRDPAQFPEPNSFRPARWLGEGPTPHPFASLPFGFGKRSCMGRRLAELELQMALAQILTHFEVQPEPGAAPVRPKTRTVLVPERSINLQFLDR
Kind of assay: Inhibition of human CYP27B1 expressed in Escherichia coli assessed as reduction in […] activity incubated for 25 mins using Adx, AdR and […].

Assay [4] has as its target T1, 1,25-dihydroxyvitamin D(3) 24-hydroxylase, mitochondrial. The experiment in a line: Inhibition of human CYP24A1.
The target in assay [5] is T2, 25-hydroxyvitamin D-1 alpha hydroxylase, mitochondrial. The experiment in a line: Inhibition of human CYP27B1.

In general, IC50 refers to the midpoint of a concentration-inhibition curve. Take `Cc1[nH]nc(O)c1C(c1ccc(OCc2ccncc2)cc1)c1c(O)n[nH]c1C`: the Ratio IC50 in assay [1] was 5. Moreover, the results for the 50% inhibitory concentration (IC50) in assay [2] and in assay [3] were 2500 nM and 570 nM, respectively.
For `CN(C)CCn1nnnc1SCC(O)(Cn1ccnc1)c1ccc(Cl)cc1Cl` (configuration not stated), the Ratio IC50 in assay [1] came to 66. Further, the results for the IC50 in assay [4] and in assay [5] were more than 10000 nM and 60.2 nM, respectively.
With `CN(C)c1cccc2c(S(=O)(=O)NC(Cn3ccnc3)c3ccc(Cl)cc3Cl)cccc12` (configuration not stated), the Ratio IC50 in assay [1] was found to be 47. In addition, the IC50 in assay [4] was found to be 4480 nM; in assay [5], 95.2 nM.
Take `Cc1[nH]nc(O)c1C(c1cccc(OCc2ccncc2)c1)c1c(O)n[nH]c1C`: the Ratio IC50 in assay [1] was found to be 5. Also, the IC50 in assay [2] amounted to 2600 nM; in assay [3], 410 nM.

The values are drawn from ChEMBL document CHEMBL4043218, “Analysis of the binding sites of vitamin D 1α-hydroxylase (CYP27B1) and vitamin D 24-hydroxylase (CYP24A1) for the design of selective CYP24A1 inhibitors: Homology modelling, molecular dynamics simulations and identification of key binding requirements” (Bioorg Med Chem, 2017).
